Source: patent US20220354845A1, “METHODS FOR ENHANCING DNA DAMAGE AND APOPTOSIS OF LEUKEMIC CELLS” (Thomas Jefferson University, priority 2019, published 2022)

How the values were obtained:
THP-1 cells [1] = assay: DNA damage by γ-H2A.X foci and western blot in THP-1 cells; type: cell-based, human; conditions: for number of γ-H2A.X foci compared to untreated cells: single agent, Bleomycin 5 μM, Doxorubicin 0.1 μM, Etoposide 0.1 μM
Experimental: DNA damage evaluation by analysis of γ-H2A.X foci. […] Lower panels show γ-H2A.X signals only. […] In FIG. 6C, DNA damage was assessed by γ-H2A.X western blot in drug-treated THP-1 cell extracts.
FIG. 10B is a series of images showing immunofluorescence microscopy of γ-H2A.X foci in untreated or drug-treated (Doxorubicin 0.1 μM, palbociclib 500 nM) THP-1 cells. γ-H2A.X light gray, DAPI dark gray. In FIG. 10C, apoptosis was analyzed by Caspase 3/7 activity by flow cytometry.
The role of chromatin structure in cytotoxic agent-induced DNA damage was also assessed by investigating the formation of γ-H2A.X foci by confocal microscopy.

[2] = test system: Y641 and A677 mutants of EZH2; conditions: cited from earlier work
[3] = test system: primary CD34+ AML samples; assay: Apoptosis by Caspase-3/7 activity (flow cytometry) in primary CD34+ AML samples; type: cell-based, human; conditions: CD34+ AML cells, co-treatment GSK-126 (0.5 μM) and Doxorubicin (0.1 μM), 48 hours
Experimental: (§1) FIGS. 9A-9B illustrate apoptosis of drug-treated cells. THP-1 (FIG. 9A) and primary CD34+ AML samples (FIG. 9B) were left untreated (CNTR), treated with Doxorubicin alone (0.1 μM), Etoposide alone (0.5 μM) or in combination with the EZH2 inhibitor GSK-126 (0.5 μM) for 48 hours. Apoptosis was analyzed by Caspase-3/7 activity by flow cytometry.

THP-1 cells [4] = assay: Apoptosis by Caspase-3/7 activity (flow cytometry) in THP-1 cells; type: cell-based, human
Experimental: as §1
FIGS. 10A-10C illustrate that treatment with the CDK4/CDK6 inhibitor palbociclib suppresses Doxorubicin-induced DNA damage. […] FIG. 10B is a series of images showing immunofluorescence microscopy of γ-H2A.X foci in untreated or drug-treated (Doxorubicin 0.1 μM, palbociclib 500 nM) THP-1 cells. γ-H2A.X light gray, DAPI dark gray. In FIG. 10C, apoptosis was analyzed by Caspase 3/7 activity by flow cytometry.
THP-1 cells were treated with Palbociclib (500 nM) for 24 hours to induce a G1-arrest. […] Anova ***p<0.001; (Right) Apoptosis analyzed by Caspase 3/7 activity by flow cytometry. Mean+/−SEM. Anova; *p<0.1 **p<0.01
To assess whether cell cycle synchronization through pre-conditioning with a CDK4/6 inhibitor prior to treatment, a subsequent study was performed in which THP-1 cells were treated with Palbociclib (500 nM) for 24 hours to induce a G1-arrest. […] (FIG. 15, Right) Apoptosis of treated cells was also analyzed by Caspase 3/7 activity by flow cytometry.

[5] = test system: H3K27me3 in AML primary cells; assay: H3K27me3 on nascent DNA of AML primary cells (CAA, western blot); type: cell-based, human; conditions: GSK126 for 12 hours
Experimental: (§2) FIGS. 4A-4B illustrate the ability of EZH2 inhibitor to affect H3K27me3 binding. […] Cells were labeled with EdU for 15 minutes. CAA was performed with H3K27me3 antibody. Following PLA, cells were immunostained for EdU.
(§3) Chromatin assembly assay: Cells were grown on chamber slides, pulse-labeled with 5 μM EdU and fixed at room temperature with 4% formaldehyde in PBS for 15 min, washed with PBS, and permeabilized with 0.3% Triton for 15 min. Cells were subjected to Click-iT reaction with biotin-azide for 30 min. The PLA reactions (Olink) between the anti-biotin antibody and antibodies to other proteins were performed as described by Olink. Following PLA, cells were immunostained with anti-biotin Alexa Fluor 488 antibody to control the specificity of CAA. The results of CAA experiments shown in FIG. 1A were quantified by counting the number of PLA signals per EdU-labeled nuclei in 50 cells of each of the three independent experiments. The nature of the results in the rest of the figures alleviated the need to quantify the results of these assays.
(§4) Since DNA-damaging agents (eg., Doxorubicin) preferentially induce double strand breaks (DSBs) in more de-condensed regions of chromatin, some epigenetic inhibitors may render leukemic cells more susceptible to DNA damage. […]

H3K27me3 in THP-1 cells = assay: H3K27me3 levels in THP-1 cells (CAA, western blot, ChIP-seq); type: cell-based, human
Experimental: as §2
(§5) Box plot of ChIP-seq read density is shown. FIG. 14B is an example showing the COL93A locus.
as §3, §4

[6] = test system: THP-1 and human CD34+ primary AML cells; assay: DNA content analysis and myeloid marker flow cytometry of AML cells; type: cell-based; conditions: GSK126 alone
THP-1 cells [7] = assay: Comet assay in drug-treated THP-1 cells; type: cell-based, human; conditions: co-treatment with GSK126 and Doxorubicin
[8] = test system: primary ASXL1-mutated AML sample; assay: γ-H2A.X foci in primary ASXL1-mutated AML sample; type: cell-based, human; conditions: CD34+ cells with frameshift ASXL1 mutation (G646fs*12); co-treatment with GSK126 (5 nM), 24 hours
Experimental: FIGS. 13A-13B illustrate accumulation of H3K27me3 on nascent DNA of a human primary ASXL1 mutated AML sample. In FIG. 13A, DNA was labeled with EdU for 15 minutes. Following conjugation with biotin, CAA was performed between nascent DNA (biotin) and H3K27me3. PLA (bright gray), Edu (biotin; light gray), DAPI; dark gray). Lower panels show PLA signals only. […] DNA Damage evaluation by analysis of γ-H2A.X foci. […] Immunofluorescence microscopy of γ-H2A.X foci (representative cells). γ-H2A.X light gray, DAPI, dark gray. Lower panels show γ-H2A.X signals only.
Mutations of ASXL1 are more frequent than EZH2 mutations and may cause a decrease in global H3K27me3 level and in the accumulation of this marker on nascent DNA. The H3K27me3 marker was not detected on Edu-labeled, nascent DNA of CD34+ […] cells carrying a frameshift ASXL1 mutation causing a premature termination (G646fs*12) in ˜50% of the cells, favoring a state of ‘open’ chromatin (FIGS. 13A and 13B).

THP-1 cells [9] = assay: ChIP-seq of γ-H2A.X in THP-1 cells; type: cell-based, human; conditions: THP-1 cells co-treated with GSK126
From the text: as §5
Without wishing to be bound by theory, a more relaxed chromatin structure may be more susceptible to DNA damage.

THP-1 cells [10] = assay: RAD51 foci formation in Doxorubicin-treated THP-1 cells; type: cell-based, human; conditions: GSK126 5 μM, Doxorubicin 0.1 μM; 12, 24, 36, 72 hrs
From the text: FIG. 7 illustrates the kinetics of RAD51 foci formation in Doxorubicin-treated THP-1 cells. […] RAD51 foci were detected by immunofluorescence in the pre-washed cultures (12 hrs), and at 24, 36, and 72 hrs post Doxorubicin washing.

primary CD34+ AML cells = assay: γ-H2A.X foci and comet assay in primary CD34+ AML cells; type: cell-based, human; conditions: co-treated with GSK126 (5 μM) and Doxorubicin (0.3 or 0.1 μM), 24 h
From the text: FIGS. 8A-8D illustrate that inhibition of EZH2 enhances DNA damage as assessed by γ-H2A.X foci and comet assay in primary CD34+ AML cells. […] Immunofluorescence microscopy of γ-H2A.X foci (representative cells). γ-H2A.X light gray, DAPI, dark gray. Lower panels show γ-H2A.X signals only. […] Immunofluorescence microscopy of γ-H2A.X foci (representative cells). γ-H2A.X light gray, DAPI, dark gray. Lower panels show γ-H2A.X signals only.

[11] = test system: primary blasts from AML patient #22324; assay: CAA (PLA) between EdU-labeled DNA and ATRIP at sites of DNA damage; type: cell-based, human; conditions: GSK343 12 hours, then 10 μM Bleomycin 1 hr
Experimental: Cells were labeled with EdU for 10 minutes and treated with 10 μM Bleomycin (Bleo) for 1 hr. CAA (PLA, dark) was performed between EdU and ATRIP protein. Chromatin assembly assay: Cells were grown on chamber slides, pulse-labeled with 5 μM EdU and fixed at room temperature with 4% formaldehyde in PBS for 15 min, washed with PBS, and permeabilized with 0.3% Triton for 15 min. Cells were subjected to Click-iT reaction with biotin-azide for 30 min. The PLA reactions (Olink) between the anti-biotin antibody and antibodies to other proteins were performed as described by Olink. Following PLA, cells were immunostained with anti-biotin Alexa Fluor 488 antibody to control the specificity of CAA. The results of CAA experiments shown in FIG. 1A were quantified by counting the number of PLA signals per EdU-labeled nuclei in 50 cells of each of the three independent experiments.

In the case of `COc1cccc2c1C(=O)c1c(O)c3c(c(O)c1C2=O)C[C@@](O)(C(=O)CO)C[C@@H]3O[C@H]1C[C@H](N)[C@H](O)[C@H](C)O1` [Doxorubicin], the “number of γ-H2A.X foci compared to untreated cells” value (THP-1 cells [1]; 24 hours) was “markedly increased”.
In the case of `Cc1cc(C)c(CNC(=O)c2cc(-c3ccc(CN4CCOCC4)cc3)cc3c2cnn3C2CCCC2)c(=O)[nH]1` [EPZ005687], the “inhibition of the Y641 and A677 mutants of EZH2” value [2] is listed as “can also inhibit”.
With `CC[C@H](C)n1cc(C)c2c(C(=O)NCc3c(C)cc(C)[nH]c3=O)cc(-c3ccc(N4CCNCC4)nc3)cc21` [GSK126] the “apoptosis (Caspase-3/7 activity)” value [3] was “enhanced apoptosis”, the “apoptosis (Caspase-3/7 activity)” value (THP-1 cells [4]; THP-1, co-treatment GSK-126 (0.5 μM) and Doxorubicin (0.1 μM), 48 hours) was “enhanced apoptosis” and the “DNA damage/apoptosis induced by treatment with Ara-C only” value (THP-1 cells [4]; THP-1 cells ex vivo, GSK126 with Ara-C) was “did not enhance”. For the same molecule, the “chromatin conformation (H3K27me3 on nascent DNA, CAA)” value [5] was “switching the chromatin conformation from “closed” to “open””, the “chromatin conformation (H3K27me3 on nascent DNA, CAA)” value (H3K27me3 in THP-1 cells; GSK126 for 12 hours) was “switching the chromatin conformation from “closed” to “open”” and the “global levels of H3K27me3 (ChIP-seq)” value (H3K27me3 in THP-1 cells; GSK126 for 24 hours) was “marked decrease”. For the same molecule, the “proliferation of AML cells (DNA content analysis)” value ([6]; 48 hrs, THP-1 and CD34+ primary AML cells) was “no effect”, the “differentiation of AML cells (myeloid marker expression)” value ([6]; 5 days, AML #013 cells) was “no effect” and the “DNA damage by comet assay” value (THP-1 cells [7]) was “Increased DNA damage”. The “number and mean fluorescence intensity of γ-H2A.X foci and γ-H2A.X levels” value (THP-1 cells [1]; co-treatment of GSK126 (5 μM) with bleomycin, Doxorubicin or etoposide, 24 hours, vs cytotoxic agent alone) was “further increased”, the “Doxorubicin-induced DNA damage (γ-H2A.X foci)” value [8] was “did not increase” and the “Doxorubicin-induced γ-H2A.X signals (ChIP-seq)” value (THP-1 cells [9]) was “increased”. The “number of RAD51 foci (DSBs repair) following Doxorubicin-induced DNA damage” value (THP-1 cells [10]) was “not diminished” and the “DNA damage (γ-H2A.X foci and comet assay)” value (primary CD34+ AML cells) was “Higher levels of DNA damage”.
For `CCCc1cc(C)[nH]c(=O)c1CNC(=O)c1cc(-c2ccnc(N3CCN(C)CC3)c2)cc2c1cnn2C(C)C` [GSK343], the “recruitment of ATRIP to sites of DNA damage induced by bleomycin” value [11] was “significantly increased recruitment of ATRIP”.
For `CCOC(=O)CCNc1cc(N2CCc3ccccc3CC2)nc(-c2ccccn2)n1` [GSKJ4], the “enhancement of Doxorubicin-induced DNA damage” value (THP-1 cells [1]; THP-1 cells treated with GSKJ4) was “did not enhance”.
In the case of `COc1cc([C@@H]2c3cc4c(cc3[C@@H](O[C@@H]3O[C@@H]5CO[C@@H](C)O[C@H]5[C@H](O)[C@H]3O)[C@H]3COC(=O)[C@H]23)OCO4)cc(OC)c1O` [etoposide], the “number of γ-H2A.X foci compared to untreated cells” value (THP-1 cells [1]; 24 hours) was “markedly increased”.
With bleomycin the “number of γ-H2A.X foci compared to untreated cells” value (THP-1 cells [1]; 24 hours) was “markedly increased”.
